Experimental data reported in patent US11365220B2, “Methods of making anti-GP41 antibody-specific capture agents” (California Institute of Technology, priority 2013, dated 2022).

Test system: 4B3
Conditions: stored under N2 at 25° C., 37° C., or 57° C. for 58 days; 10 nM 4B3 spiked in 1% v/v human serum
Protocol: Small amounts of (iii) were stored under N2 at 25° C., 37° C., or 57° C. for 58 days. […] The remaining samples were lyophilized and used in a single point sandwich ELISA. Streptavidin-coated 96-well plates were saturated with the samples of (iii) recovered from the storage experiments using 1 μM solutions in TBS. The plates were blocked with 5% w/v dry milk in TBS, then incubated with either 1% v/v human serum or 10 nM 4B3 spiked in 1% v/v human serum in 0.5% w/v dry milk in TBS at room temperature for 1 hr. Bound antibody was probed with HPR-conjugated mouse monoclonal antibody to human IgG Fc diluted 1:15,000 in 0.5% w/v dry milk in TBS. The colorimetric assay was developed with TMB substrate, then quenched with 1 M H2SO4 and read at 450 nm.

## Biotin-PEG5-IWCGSGKLICTTA-Pra-(TZ-Az4-eihny-CONH2)-ICTTA-CONH2 [(iii)]
  ELISA performance after storage: no detectable loss of performance
